Assay results: PubChem BioAssay (NCI)
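All cell lines were grown in 96-well plates and treated with compound for 48 hours. GI50 marks 50% less growth. Definition used: TGI = concentration required for complete inhibition of growth.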

Key:
Assay in all cases: DTP human tumour cell line panel, 48 h
[1] = test system: HS 578T breast
[2] = test system: MCF7 breast
[3] = test system: NCI-H23 lung
[4] = test system: HCT-15 colon
[5] = test system: SK-MEL-5 melanoma
[6] = test system: IGROV1 ovarian
[7] = test system: HOP-92 NSCLC
[8] = test system: LOX IMVI melanoma
[9] = test system: SR leukemia
[10] = test system: 786-0 renal
[11] = test system: CAKI-1 renal
[12] = test system: HCT-116 colon
[13] = test system: MDA-MB-435
[14] = test system: SK-MEL-2 melanoma

Structure (SMILES) | TGI [1] [µM] | TGI [2] [µM] | TGI [3] [µM] | TGI [4] [µM] | TGI [5] [µM] | TGI [6] [µM] | TGI [7] [µM] | TGI [8] [µM] | TGI [9] [µM] | TGI [10] [µM] | TGI [11] [µM] | TGI [12] [µM] | TGI [13] [µM] | TGI [14] [µM] | GI50 [1] [µM] | GI50 [14] [µM] | GI50 [6] [µM] | GI50 [7] [µM] | GI50 [11] [µM] | GI50 [12] [µM]
C=CCN1C(=O)CC1N(CC=C)S(=O)(=O)c1ccc(C)cc1 (configuration not stated) | > 100 | > 100 | > 100 | > 100 | > 100 | > 100 | > 100 | > 100 | > 100 | > 100 | > 100 | > 100 | > 100 |  |  |  |  |  |  | 
Cc1c(/C=N/NC(=S)Nc2cccc(Cl)c2)c(=O)n(-c2ccccc2)n1C | 33.6 | 62.5 | 82.3 | > 100 | > 100 | 42.4 | 31.7 | > 100 | > 100 | 37 | 25.7 | > 100 | > 100 | 36.7 |  |  |  |  |  | 
FC(F)(F)c1nc2ccc(SSc3ccc4nc(C(F)(F)F)[nH]c4c3)cc2[nH]1 | > 100 | > 100 | > 100 | > 100 | > 100 | > 100 | > 100 | > 100 | > 100 | > 100 | > 100 | > 100 | > 100 | > 100 | > 100 | > 100 | > 100 | > 100 | > 100 | > 100
COC(=O)C1=C(OC(=O)/C(=C/c2ccc(Cl)cc2Cl)c2ccc(Cl)cc2Cl)C(C(=O)OC)[C@@]2(O)[C@@H](C(=O)OC)[C@H](C)C[C@@H]1[C@@H]2C(=O)OC (some centres not stated) | > 100 | > 100 | > 100 | > 100 | > 100 | > 100 | > 100 | > 100 | > 100 | > 100 | > 100 | > 100 | > 100 | > 100 |  |  |  |  |  | 
CN(C)/C(N)=N/C(N)=Nc1cccc(Cl)c1 | > 100 | > 100 | > 100 | > 100 | 74.6 | 77.9 |  | > 100 | > 100 | > 100 | > 100 | > 100 | > 100 | > 100 |  |  |  |  |  | 
N#Cc1nc(CSCc2ccccc2)oc1N | > 100 | > 100 | > 100 | > 100 |  | > 100 | > 100 |  | > 100 | > 100 | > 100 | > 100 | > 100 | > 100 |  |  |  |  |  | 
CC1(C)CC(=O)/C(=C/C2CCNC2=S)C(=O)N1 (configuration not stated) | > 100 | > 100 | > 100 | > 100 | > 100 | > 100 | > 100 | > 100 | > 100 | > 100 | > 100 | > 100 | > 100 | > 100 |  |  |  |  |  | 
O=c1[nH]c(=O)n(C2CC(O)C(CO)O2)cc1OCCc1ccccc1 (configuration not stated) | > 100 | > 100 | > 100 | > 100 | > 100 | > 100 |  | > 100 | > 100 | > 100 | > 100 | > 100 | > 100 |  |  |  |  |  |  | 
C/C(=N/NC(=O)c1ccncc1)c1ccc(NC(=O)C(=O)Nn2c(=S)[nH]c3ccccc3c2=O)cc1 | > 100 | > 100 | > 100 | > 100 | > 100 | > 100 | > 100 | > 100 | > 100 | > 100 | > 100 | > 100 | > 100 | > 100 |  |  |  |  |  | 
CCSc1c(C)c2c(n(Cc3ccc(OC)cc3)c1=O)Cc1ccccc1C2 | > 100 | > 100 | > 100 | > 100 | 77.4 | 54.2 |  | 76.2 | 21.3 | 28.9 | > 100 | 32.5 | > 100 | 66 |  |  |  |  |  | 
N=C(N)C1CN(CCc2cnc[nH]2)C(=O)NC1=O (configuration not stated) | > 100 | > 100 | > 100 | > 100 | > 100 | > 100 | > 100 |  | > 100 | > 100 | > 100 | > 100 | > 100 |  |  |  |  |  |  | 
CN1CCC(CNC(=O)CCCCCCCCC(=O)NCC2(c3ccccc3)CCN(C)CC2)(c2ccccc2)CC1 | > 100 | > 100 |  | > 100 | > 100 | > 100 |  | > 100 | > 100 | > 100 |  | > 100 | > 100 | > 100 |  |  |  |  |  | 
N#Cc1nc(C2CC2)oc1N | > 100 | > 100 | > 100 | > 100 |  | > 100 | > 100 | > 100 | > 100 | > 100 | > 100 | > 100 | > 100 | > 100 |  |  |  |  |  | 
CCOC(=O)N1CCN(c2c(C)nc(C)[nH]c2=O)CC1 | > 100 | > 100 | > 100 | > 100 | > 100 | > 100 | > 100 | > 100 | > 100 | > 100 | > 100 | > 100 | > 100 |  |  |  |  |  |  | 
NC(=O)c1cc(-c2ccc(-n3ccnc3)cc2)n[nH]c1=O | > 100 | > 100 | > 100 | > 100 | > 100 | > 100 | > 100 |  | > 100 | > 100 | > 100 | > 100 | > 100 |  |  |  |  |  |  | 
Cn1c(NN)nc(-c2ccc([N+](=O)[O-])cc2)c(C#N)c1=O | 32.9 | 31.9 | 26.2 | 42.4 | 17.3 | 39.9 |  | 35.2 | 43.8 | 27.2 | 61.6 | 25.4 | 32.8 | 41.3 |  |  |  |  |  | 
COC(=O)c1ccccc1/C=C1/Cc2cccc(C)c2C1=O | > 100 | > 100 | > 100 | > 100 | > 100 | > 100 | > 100 | > 100 | > 100 | > 100 | > 100 | > 100 | > 100 |  |  |  |  |  |  | 
C[C@]12CCC3c4ccc(O)cc4CC[C@H]3C1CC(=O)N(N)C2=O (some centres not stated) | > 100 | > 100 | > 100 |  | > 100 | > 100 | > 100 |  | > 100 | > 100 | > 100 | > 100 | > 100 |  |  |  |  |  |  | 
CSc1ccccc1P(c1ccccc1SC)c1ccccc1SC | > 100 | > 100 | > 100 | > 100 | > 100 |  | > 100 | > 100 | > 100 | > 100 | > 100 | > 100 | > 100 | > 100 |  |  |  |  |  | 
O=c1[nH]c(=O)n(C2CC(O)C(CO)O2)cc1NN=NCCc1ccccc1 (configuration not stated) | > 100 | > 100 | > 100 | > 100 | > 100 | > 100 |  | > 100 | > 100 | > 100 | > 100 | > 100 | > 100 |  |  |  |  |  |  | 
CC1=C(C(=O)N[C@@H](Cc2ccccc2)C(=O)O)N2C(=O)[C@@H](NC(=O)[C@@H](N)CC(C)C)[C@H]2SC1 | > 100 | > 100 |  | > 100 | > 100 | > 100 | > 100 | > 100 | > 100 | > 100 | > 100 |  | > 100 | > 100 |  |  |  |  |  | 
O=C(c1ccco1)C1CC(c2ccc3ccccc3c2O)=NN1 (configuration not stated) | > 100 | > 100 | > 100 | > 100 | > 100 | > 100 | > 100 |  | > 100 | > 100 | > 100 | > 100 | > 100 | > 100 |  |  |  |  |  | 
CCOC(=O)[C@@H]1C[C@H]1c1ccc(O)c(O)c1 | > 100 | > 100 | > 100 | > 100 | 31.3 | > 100 | > 100 |  | > 100 | > 100 | > 100 | 28.6 | > 100 | 61.5 |  |  |  |  |  | 
c1cc(-c2csc(-c3ccsc3)c2)cs1 | > 100 | 48.6 | > 100 | > 100 | > 100 | > 100 | > 100 | > 100 | > 100 | > 100 | > 100 | > 100 | > 100 |  |  |  |  |  |  | 
Cc1cccc(-n2c(C)nc3ccc(NC4OC(CO)C(O)C(O)C4O)cc3c2=O)c1 (configuration not stated) | > 100 | > 100 | > 100 | > 100 | > 100 | > 100 |  | > 100 | > 100 | > 100 | > 100 | > 100 | > 100 | > 100 |  |  |  |  |  | 
O=C(O)CN=C(C(=NCC(=O)O)c1ccccc1)c1ccccc1 | > 100 | > 100 | > 100 | > 100 |  |  |  | > 100 | > 100 | > 100 | > 100 | > 100 | > 100 | > 100 |  |  |  |  |  | 
